Structures are written as SMILES. Some results are limits rather than exact numbers.

The target in this assay is T1, Human NK1 Receptor (Homo sapiens, UniProt P25103).
T1 construct: endogenous in cells; host or cells: Human lymphoma IM9 cells (whole cells)
T1 sequence (P25103 whole entry): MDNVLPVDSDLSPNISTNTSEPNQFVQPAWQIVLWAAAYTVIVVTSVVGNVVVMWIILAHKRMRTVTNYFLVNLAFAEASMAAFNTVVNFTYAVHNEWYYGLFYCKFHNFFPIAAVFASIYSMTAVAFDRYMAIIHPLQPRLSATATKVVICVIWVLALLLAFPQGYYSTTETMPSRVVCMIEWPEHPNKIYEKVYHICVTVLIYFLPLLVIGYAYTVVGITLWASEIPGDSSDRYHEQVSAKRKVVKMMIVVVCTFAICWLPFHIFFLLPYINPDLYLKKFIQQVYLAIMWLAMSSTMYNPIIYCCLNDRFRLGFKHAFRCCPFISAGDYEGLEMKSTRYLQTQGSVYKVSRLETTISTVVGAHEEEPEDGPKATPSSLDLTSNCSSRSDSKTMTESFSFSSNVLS
Nature of the assay: In Vitro Human NK1 Receptor Binding Assay ([125I]Bolton-Hunter substance P displacement, IM9 cells). Conditions: human NK1 receptor, IM9 cells, [125I]Bolton-Hunter substance P; read-out: IC50 (nM) hNK1. In a few lines:
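Test compounds competed with 0.05-0.1 nM [125I]Bolton-Hunter substance P for binding to intact IM9 cells over 50 min at 21° C, pH 7.4 buffer with MnCl2 and peptidase inhibitors. […] [Sar9, Met(O2)11] substance P gave non-specific binding. Bound counts were measured after filtration and fitted iteratively.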
The term IC50 denotes the midpoint of a concentration-inhibition curve. Consider `CC(Cc1c[nH]c2ccccc12)(NCc1cc2ccccc2o1)C(=O)NCc1cccc(OC(F)(F)F)c1` (stereo not drawn) [compound 59, 2-[(Benzofuran-2-ylmethyl)-amino]-3-(1H-indol-3-yl)-2-methyl-N-(3-trifluoromethoxy-benzyl)-propionamide], for which the IC50 is over 10000 nM.
Consider `CN(C)c1ccc(CNC(=O)C(C)(Cc2c[nH]c3ccccc23)NCc2cc3ccccc3o2)cc1` (stereo not drawn) [compound 60, 2-[(Benzofuran-2-ylmethyl)-amino]-N-(4-dimethylamino-benzyl)-3-(1H-indol-3-yl)-2-methyl-propionamide], for which the concentration for half-maximal inhibition (IC50) is 964 nM.
For `CC(Cc1c[nH]c2ccccc12)(NCc1cc2ccccc2o1)C(=O)NCc1ccc(F)cc1` (stereo not drawn) [compound 61, 2-[(Benzofuran-2-ylmethyl)-amino]-N-(4-fluoro-benzyl)-3-(1H-indol-3-yl)-2-methyl-propionamide] the value was 61 nM; for `CC(Cc1c[nH]c2ccccc12)(NCc1cc2ccccc2o1)C(=O)NCc1ccc(N)cc1` (stereo not drawn) [compound 62, N-(4-Amino-benzyl)-2-[(benzofuran-2-ylmethyl)-amino]-3-(1H-indol-3-yl)-2-methyl-propionamide], 837 nM; for `CCC(NC(=O)C(C)(Cc1c[nH]c2ccccc12)NCc1cc2ccccc2o1)c1ccccc1` (stereo not drawn) [compound 63, 2-[(Benzofuran-2-ylmethyl)-amino]-3-(1H-indol-3-yl)-2-methyl-N-(1-phenyl-propyl)-propionamide], 58 nM.
For `CC(Cc1c[nH]c2ccccc12)(NCc1cc2ccccc2o1)C(=O)NCc1ccc(Cl)cc1` (stereo not drawn) [compound 64, 2-[(Benzofuran-2-ylmethyl)-amino]-N-(4-chloro-benzyl)-3-(1H-indol-3-yl)-2-methyl-propionamide], the IC50 is 76 nM.
Turning to `CC(Cc1c[nH]c2ccccc12)(NCc1cc2ccccc2o1)C(=O)NCc1ccccc1Br` (stereo not drawn) [compound 65, 2-[(Benzofuran-2-ylmethyl)-amino]-N-(2-bromo-benzyl)-3-(1H-indol-3-yl)-2-methyl-propionamide], the IC50 was 700 nM.
For `CC(Cc1c[nH]c2ccccc12)(NCc1cc2ccccc2o1)C(=O)NCc1ccc(OC(F)(F)F)cc1` (stereo not drawn) [compound 66, 2-[(Benzofuran-2-ylmethyl)-amino]-3-(1H-indol-3-yl)-2-methyl-N-(4-trifluoromethoxy-benzyl)-propionamide] the value was 3440 nM; for `COc1ccc(CNC(=O)C(C)(Cc2c[nH]c3ccccc23)NCc2cc3ccccc3o2)cc1` (stereo not drawn) [compound 68, 2-[(Benzofuran-2-ylmethyl)-amino]-3-(1H-indol-3-yl)-N-(4-methoxy-benzyl)-2-methyl-propionamide], 312 nM.
`CC(NC(=O)C(C)(Cc1c[nH]c2ccccc12)NCc1cc2ccccc2o1)c1ccccn1` (stereo not drawn) [compound 69, 2-[(Benzofuran-2-ylmethyl)-amino]-3-(1H-indol-3-yl)-2-methyl-N-(1-pyridin-2-yl-ethyl)-propionamide]: the IC50 amounted to 12 nM.
In the case of `CC(Cc1c[nH]c2ccccc12)(NCc1cc2ccccc2o1)C(=O)NCCC1CCCCC1` (stereo not drawn) [compound 70, 2-[(Benzofuran-2-ylmethyl)-amino]-N-(2-cyclohexyl-ethyl)-3-(1H-indol-3-yl)-2-methyl-propionamide], the IC50 came out at 216 nM.
Consider `Cc1ccc(CNC(=O)C(C)(Cc2c[nH]c3ccccc23)NCc2cc3ccccc3o2)cc1` (stereo not drawn) [compound 71, 2-[(Benzofuran-2-ylmethyl)-amino]-3-(1H-indol-3-yl)-2-methyl-N-(4-methyl-benzyl)-propionamide], for which the IC50 stood at 144 nM.
In the case of `CC(Cc1c[nH]c2ccccc12)(NCc1cc2ccccc2o1)C(=O)NCc1cccc(Br)c1` (stereo not drawn) [compound 72, 2-[(Benzofuran-2-ylmethyl)-amino]-N-(3-bromo-benzyl)-3-(1H-indol-3-yl)-2-methyl-propionamide], the IC50 came out at 18 nM.
As for `CC(Cc1c[nH]c2ccccc12)(NCc1cc2ccccc2o1)C(=O)NCC(O)c1ccccc1` (stereo not drawn) [compound 73, 2-[(Benzofuran-2-ylmethyl)-amino]-N-(2-hydroxy-2-phenyl-ethyl)-3-(1H-indol-3-yl)-2-methyl-propionamide], the IC50 is 1230 nM.
Consider `CC(Cc1c[nH]c2ccccc12)(NCc1cc2ccccc2o1)C(=O)NCc1cccc(C(F)(F)F)c1` (stereo not drawn) [compound 74, 2-[(Benzofuran-2-ylmethyl)-amino]-3-(1H-indol-3-yl)-2-methyl-N-(3-trifluoromethyl-benzyl)-propionamide], for which the IC50 worked out at 12 nM.
On to `CC(Cc1c[nH]c2ccccc12)(NCc1cc2ccccc2o1)C(=O)NC(Cc1ccccc1)c1ccccc1` (stereo not drawn) [compound 75, 2-[(Benzofuran-2-ylmethyl)-amino]-N-(1,2-diphenyl-ethyl)-3-(1H-indol-3-yl)-2-methyl-propionamide], for which the IC50 is over 10000 nM.
As for `CNCCNC(=O)C(C)(Cc1c[nH]c2ccccc12)NCc1cc2ccccc2o1` (stereo not drawn) [compound 76, 2-[(Benzofuran-2-ylmethyl)-amino]-3-(1H-indol-3-yl)-2-methyl-N-(2-methylamino-ethyl)-propionamide], the IC50 was 3700 nM.
Regarding `CC(Cc1c[nH]c2ccccc12)(NCc1cc2ccccc2o1)C(=O)NCc1cccc(Cl)c1` (stereo not drawn) [compound 77, 2-[(Benzofuran-2-ylmethyl)-amino]-N-(3-chloro-benzyl)-3-(1H-indol-3-yl)-2-methyl-propionamide], the IC50 was 17 nM.
Turning to `CC(Cc1c[nH]c2ccccc12)(NCc1cc2ccccc2o1)C(=O)NC12CN3CN(CN(C3)C1)C2` (stereo not drawn) [compound 78, 2-[(Benzofuran-2-ylmethyl)-amino]-3-(1H-indol-3-yl)-2-methyl-N-(1,3,5-triaza-tricyclo[3.3.1.1>3,7]-dec-7-yl)-propionamide], the IC50 was over 10000 nM.
As for `CC(Cc1cccc(C(F)(F)F)c1)NC(=O)C(C)(Cc1c[nH]c2ccccc12)NCc1cc2ccccc2o1` (stereo not drawn) [compound 79, 2-[(Benzofuran-2-ylmethyl)-amino]-3-(1H-indol-3-yl)-2-methyl-N-[1-methyl-2-(3-trifluoromethyl-phenyl)-ethyl]-propionamide], the IC50 was over 10000 nM.
`CC(Cc1c[nH]c2ccccc12)(NCc1cc2ccccc2o1)C(=O)NCC(c1ccccc1)c1ccccn1` (stereo not drawn) [compound 80, 2-[(Benzofuran-2-ylmethyl)-amino]-3-(1H-indol-3-yl)-2-methyl-N-(2-phenyl-2-pyridin-2-yl-ethyl)-propionamide]: the IC50 is over 10000 nM.
`COC(=O)c1ccc(CNC(=O)C(C)(Cc2c[nH]c3ccccc23)NCc2cc3ccccc3o2)c(OC)c1` (stereo not drawn) [compound 81, 4-{[2-[(Benzofuran-2-ylmethyl)-amino]-3-(1H-indol-3-yl)-2-methyl-propionylamino]-methyl}-3-methoxy-benzoic acid methyl ester]: the IC50 was over 10000 nM.
The value for `CC(NC(=O)C(C)(Cc1c[nH]c2ccccc12)NCc1cc2ccccc2o1)C(C)(C)C` (stereo not drawn) [compound 82, 2-[(Benzofuran-2-ylmethyl)-amino]-3(1H-indol-3-yl)-2-methyl-N-(1,2,2-trimethyl-propyl)-propionamide] was 1140 nM.
As for `CN(C)CCNC(=O)C(C)(Cc1c[nH]c2ccccc12)NCc1cc2ccccc2o1` (stereo not drawn) [compound 83, 2-[(Benzofuran-2-ylmethyl)-amino]-N-(2-dimethylamino-ethyl)-3-(1H-indol-3-yl)-2-methyl-propionamide], the 50% inhibitory concentration (IC50) is 3520 nM.

The values are drawn from patent publication US6472418B1, “Non-peptide NK1 receptors antagonists” (Warner-Lambert Company, priority 1998, dated 2002).
